The target of test [1] is importin-beta (Homo sapiens, UniProt Q14974). On the procedure: GST alone was used as a negative control.
(§1) Pull-down assays and co-immunoprecipitations: Sciatic nerve axoplasm (500 micrograms) was pre-cleared for 1 hour with 80% protein G-Sepharose (Amersham Bioscience). Following overnight incubation with primary antibody, complexes were incubated on protein-G beads for 2 hours, washed extensively and eluted by boiling in SDS-PAGE sample buffer before loading on gels for Western blot analysis. For co-immunoprecipitation in the presence of competitors, 2 micromolar NLS (SEQ ID NO: 2) or reverse-NLS (SEQ ID NO: 3) peptide was added to the axoplasm for overnight incubation at 4 degrees centigrade. For direct pull-downs, GST-pERK (0.5 microgram) or importin-beta (1 microgram) was equilibrated in PBS or NTB and added to 500 microgram aliquots of axoplasm from different post-lesion times. […] All pull-downs were washed twice with 0.2 molar NaCl in PBS or NTB and twice again with PBS or NTB before elution in SDS-PAGE sample buffer for loading on gels.

The target in test [2] is pERK2 (Homo sapiens, UniProt P28482). The following applies: in-vitro, increased at calcium up to 1 millimolar. On the procedure: as §1
Sequence of pERK2 (P28482 whole entry): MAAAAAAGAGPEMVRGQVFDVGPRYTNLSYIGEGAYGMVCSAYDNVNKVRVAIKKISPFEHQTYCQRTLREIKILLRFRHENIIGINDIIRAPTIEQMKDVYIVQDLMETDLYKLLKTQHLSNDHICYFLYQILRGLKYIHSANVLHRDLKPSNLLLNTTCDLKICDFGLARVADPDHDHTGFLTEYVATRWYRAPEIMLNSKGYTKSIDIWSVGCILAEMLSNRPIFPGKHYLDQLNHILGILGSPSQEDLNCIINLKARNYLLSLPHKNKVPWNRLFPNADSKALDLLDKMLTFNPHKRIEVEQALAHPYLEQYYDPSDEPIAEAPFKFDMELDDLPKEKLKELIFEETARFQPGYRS
Sequence of pERK2 (P02544 whole entry partner): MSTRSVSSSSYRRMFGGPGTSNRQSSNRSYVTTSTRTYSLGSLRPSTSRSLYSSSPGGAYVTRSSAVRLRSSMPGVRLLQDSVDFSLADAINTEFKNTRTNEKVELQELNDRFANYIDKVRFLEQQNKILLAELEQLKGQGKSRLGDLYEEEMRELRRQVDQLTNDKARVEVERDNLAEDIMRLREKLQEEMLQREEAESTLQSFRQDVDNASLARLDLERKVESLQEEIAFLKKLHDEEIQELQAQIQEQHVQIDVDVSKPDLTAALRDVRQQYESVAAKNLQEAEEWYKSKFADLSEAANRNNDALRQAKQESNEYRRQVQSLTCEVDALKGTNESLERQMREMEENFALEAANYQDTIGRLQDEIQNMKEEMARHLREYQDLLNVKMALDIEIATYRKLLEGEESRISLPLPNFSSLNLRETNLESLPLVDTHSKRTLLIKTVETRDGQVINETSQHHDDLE
The subject of test [3] is alkaline phosphatase. The settings on record: identical concentrations of vimentin. As for the experimental part:
(§2) Alkaline phosphatase (AP; 2 units; Roche, Mannheim, Germany) or axoplasm from injured nerve (100 micrograms) was then added for an additional 30 minutes. Complexes were purified over Nickel-NTA-Agarose followed by Western blot analysis for pERK. Alkaline phosphatase activity was verified with the synthetic substrate p-nitrophenyl phosphate (pNPP, Catalog # S0942, Sigma) dissolved in 0.1 molar glycine buffer (0.1 molar glycine, 1 millimolar MgCl2, 1 millimolar ZnCl2; pH 10.4) for a stock solution of 1 mg/ml. […] The yellow hydrolysis product was quantified spectrophotometrically at 405 nm.

Test [4] concerns the target pERK (Homo sapiens, UniProt P28482). On the procedure: as §2
In test [5] the target is pERK with vimentin (Homo sapiens, UniProt P28482). The following applies: EGTA 100 millimolar. On the procedure: as §1
Sequence of pERK with vimentin (P28482 2-360): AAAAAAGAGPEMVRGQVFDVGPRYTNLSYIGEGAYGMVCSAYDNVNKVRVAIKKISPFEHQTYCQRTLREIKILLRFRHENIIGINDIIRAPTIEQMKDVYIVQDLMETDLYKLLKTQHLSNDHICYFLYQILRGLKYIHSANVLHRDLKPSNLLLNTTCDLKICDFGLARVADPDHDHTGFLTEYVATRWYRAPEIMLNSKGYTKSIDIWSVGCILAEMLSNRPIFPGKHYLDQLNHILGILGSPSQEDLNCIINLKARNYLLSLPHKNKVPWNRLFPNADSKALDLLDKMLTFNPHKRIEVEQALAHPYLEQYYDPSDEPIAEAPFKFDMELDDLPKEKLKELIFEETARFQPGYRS
The subject of test [6] is importin-beta. The settings on record: CHX 10 micrograms/ml, ActD 5 micrograms/ml. On the procedure:
Electrophoretic gel autoradiography: In order to evaluate whether importin-beta is synthesized in axons, sciatic nerve segments were incubated for 6 hours in Met/Cys-deficient DMEM medium (Gibco-BRL) containing 1 mCi/ml of [35]S-Met/Cys (Amersham Bioscience), with or without 10 micrograms/ml of the translation inhibitor cycloheximide (CHX, Sigma) or 5 micrograms/ml of the transcription inhibitor actinomycin D (ActD, Sigma), followed by extrusion of the axoplasm into nuclear transport buffer. The extruded axoplasm was immunoprecipitated with anti importin-beta antibody, and the immunoprecipitate was resolved via 10% SDS-PAGE. Following electrophoresis, the gel was dried and analyzed via autoradiography using FujiFilm BAS2500.

Test [7] concerns vimentin and peripherin. The following applies: calpeptin 100 micromolar applied to the nerve by injection.

Sequence of pERK (P28482 whole entry): as the sequence (P28482 whole entry) above
Sequence of pERK (Q14974 whole entry partner): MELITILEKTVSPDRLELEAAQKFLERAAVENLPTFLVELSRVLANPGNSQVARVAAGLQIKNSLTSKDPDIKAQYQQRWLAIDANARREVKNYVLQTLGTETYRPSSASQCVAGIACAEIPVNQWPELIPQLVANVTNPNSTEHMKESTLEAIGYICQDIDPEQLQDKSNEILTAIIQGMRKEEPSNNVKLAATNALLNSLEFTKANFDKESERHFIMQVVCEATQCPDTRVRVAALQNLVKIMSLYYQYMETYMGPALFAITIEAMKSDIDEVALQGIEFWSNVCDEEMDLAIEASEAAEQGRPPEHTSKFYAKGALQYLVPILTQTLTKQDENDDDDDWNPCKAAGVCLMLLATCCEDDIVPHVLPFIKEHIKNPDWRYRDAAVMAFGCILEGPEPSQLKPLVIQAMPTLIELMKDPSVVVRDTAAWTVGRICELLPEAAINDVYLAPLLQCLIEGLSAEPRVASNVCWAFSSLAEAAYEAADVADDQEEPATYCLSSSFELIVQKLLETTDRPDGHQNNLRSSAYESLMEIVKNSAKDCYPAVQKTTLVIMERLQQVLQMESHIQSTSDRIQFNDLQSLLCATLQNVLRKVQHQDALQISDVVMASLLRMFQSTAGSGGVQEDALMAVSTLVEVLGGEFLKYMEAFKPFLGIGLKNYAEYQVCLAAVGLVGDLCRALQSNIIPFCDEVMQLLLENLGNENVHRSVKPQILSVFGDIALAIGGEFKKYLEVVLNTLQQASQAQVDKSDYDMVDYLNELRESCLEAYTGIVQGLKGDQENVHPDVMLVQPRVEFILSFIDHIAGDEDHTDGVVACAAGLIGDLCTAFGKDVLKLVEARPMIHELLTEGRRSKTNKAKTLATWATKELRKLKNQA
Sequence of pERK (P02544 whole entry partner): as the sequence (P02544 whole entry partner) above
Sequence of importin-beta (Homo sapiens, UniProt Q14974) (Q14974 whole entry): as the sequence (Q14974 whole entry partner) above
Sequence of importin-beta (Homo sapiens, UniProt Q14974) (P02544 whole entry partner): as the sequence (P02544 whole entry partner) above

For vimentin, the “effect of changing calcium concentrations on the vimentin-importin-beta interaction” value in test [1] is reported as “little or no effect”. The “pull-down with GST-importin-beta” value in test [1] (did not precipitate with GST alone) was “readily pulled down”. Further, the “vimentin binding to pERK2” value in test [2] is recorded as “calcium dependent”. Also, the “hydrolysis of p-nitrophenyl phosphate by alkaline phosphatase” value in test [3] is reported as “no effect”. Further, the “calcium dependence of protection of pERK2 from dephosphorylation” value in test [4] (2 micrograms vimentin, varied calcium) is recorded as “calcium dependent manner”. The “protection of pERK2 from the phosphatases” value in test [4] (three-fold to six-fold molar ratio to pERK, alkaline phosphatase or axoplasm) is on record as “almost complete protection”.
As for EGTA, in test [5], the “interaction of GST-pERK with vimentin in axoplasm” value is reported as “blocked”.
On to `C[C@@H]1C[C@@H]([C@H](O)CC2CC(=O)NC(=O)C2)C(=O)[C@@H](C)C1` [CHX, cycloheximide], for which, in test [6], the “formation of radioactive importin-beta protein” value is on record as “not formed”.
Regarding actinomycin D [ActD], the “formation of radioactive importin-beta protein” value in test [6] was “merely reduced”.
As to `CCCC[C@@H](C=O)NC(=O)[C@H](CC(C)C)NC(=O)OCc1ccccc1` [calpeptin], in test [7], the “lower molecular mass bands of vimentin and peripherin” value is recorded as “disappeared”.

(Values after patent publication US20060239988A1, “Neuronal regeneration and compound administration methods” (priority 2003, published 2006).)
